Test results taken from patent US10093642B2, “Multitarget hedgehog pathway inhibitors and uses thereof” (UNIVERSITA' DEGLI STUDI DI SIENA, priority 2013, dated 2018).
“Also recorded” adds a separate entry of the source.

Tests used:
[1] = tested on: Hh pathway (Gli-RE reporter, activated by SMO agonist SAG); assay: Gli-luciferase reporter assay in SAG-treated NIH 3T3 Shh-light II cells; type: cell-based
Procedure: FIG. 4. Effect of active natural compounds identified by the pharmacophore screening in a luciferase assay, where the gene reporter was Gli1 and the pathway was activated by the SAG molecule, a potent SMO agonist. Natural compounds were tested at three different concentrations (1, 10 and 20 μM) and their activity was compared to that of cyclopamine, the natural compound reference inhibitor of the Hedgehog pathway, which was tested at the same doses (1, 10 and 20 μM). On both graphs the activity of cyclopamine is reported as reference standard. (A) cyclopamine, 2,4,5,3′,4′-penta-Ome chalcone and Auriculasin; (B) cyclopamine, Martinoside, Jaceidin, 2,4,5,3′,4′-penta-Ome chalcone, 3,4-di-MDO-2′,4′,5′-tri-Ome dihydrochalcone.
FIG. 6. Dose-response curve of Glabrescione B in SAG (Smoothened Agonist, 200 nM) treated NIH 3T3 Shh-light II (Shh-LII) cells. Treatment time was 48 h and normalization was against Renilla luciferase. Shown is the fold increase of Hh reporter activity compared with cells not treated with SAG.
FIG. 19. Effect of derivatives NT8, NT9, NT10, NT11, NT12, NT13, NT14 and NT15 on the Hedgehog pathway, measured at 5 μM dose in a luciferase assay where the gene reporter was Gli1 and the pathway was activated by the SAG molecule, a potent SMO agonist. […]
To investigate the inhibitory properties of Glabrescione B on Hh signaling, the inventors examined its effects in NIH 3T3 Shh-light II (Shh-LII) cells stably incorporating an Hh-responsive (Gli-RE) reporter, in which induction of the pathway occurs following treatment with the SMO agonist SAG. […] The IC50 in this assay was 0.8 μM.
The ability of Glabrescione B to suppress Hh signaling was assessed in a cellular context of Hh pathway induction. To this end, the antagonist properties of Glabrescione B were determined in Shh Light II (ATCC, cat. # CRL-2795), a murine fibroblast NIH 3T3 cell line. These cells, stably incorporating the Gli-luc reporter and the pRL-TK Renilla reniformis (as described in Taipale, Chen et al. 2000) are a standard tool used to assay Hh pathway activity. The cells that reached the confluence were treated for 48 h with the SMO agonist SAG (200 nM, Alexis, cat. #ALX-270-426-M001) in absence or in presence of Glabrescione B at the amount indicated in FIG. 6. […] Control cells were treated with only DMSO (0.5%, SERVA, cat. #39757.02) Determination of luciferase activities was carried out using the Dual-Luciferase assay according to manufacturer's instructions (Dual-Luciferase® Reporter assay system; Promega, cat. # E1980). All presented data are firefly luciferase activity reported to the Renilla control activity. […] IC50 of 0.8 μM, represents the concentration of Glabrescione B necessary to have fifty percent of inhibition.
Evaluation of the Hh inhibitory activity of these molecules at 5 μM was preliminarily conducted in vitro on Shh Light II cells (see example 2).

SMO receptor = biological target: T1, SMO receptor (UniProt P56726); assay: Displacement assay with Bodipy-cyclopamine in HEK293 cells transfected with SMO; details: BC 5 nM, 2 h at 37° C., read-out: IC50 of blocking Bodipy-cyclopamine (BC) binding to SMO
T1 construct: fused on or other part: Possibly a C-terminal Myc3 tag, if the construct is Smo-Myc3 of Chen et al. 2002
Procedure: (A) HEK293 cells were transiently transfected with pcDNA-SMO vector and incubated with Bodipy-cyclopamine (BC 5 nM) alone (control) or in the presence of increasing concentrations of KAAD (Cyclopamine-KAAD, Smoothened antagonist) or increasing concentrations of Glabrescione B, as indicated. Bodipy-cyclopamine binding (BC binding) (green) is visualized using fluorescence microscopy in a representative field. (B) The concentration-response curve for Glabrescione B was obtained by quantification of the Bodipy-cyclopamine fluorescence in three photographs for each coverslip. The values are expressed as a percentage of the fluorescence detected in control HEK293 cells incubated with Bodipy-cyclopamine alone. The data shown are the means of triplicates derived from a representative experiment of three. Error bars indicate SD (standard deviation). […]
To investigate the binding properties of Glabrescione B to SMO receptor, a competition assay was carried out. In this experiment it was analyzed whether Glabrescione B could compete with Bodipy-cyclopamine (BC; 5 nM USBiological, cat. # B2527), a fluorescent derivative of cyclopamine, which is known to interact with the SMO receptor at the level of its heptahelical bundle. […] Cells were analyzed with a Carl Zeiss microscope (Axio Observer ZI). […] Bodipy-cyclopamine (green) and DAPI (blue) signals were analyzed in 3-4 representative fields for coverslips.

[2] = tested on: HepG2 hepatocellular carcinoma cells; assay: Effect on Hh-independent HepG2 cells; type: cell-based
Wnt/Bcatenin = assay: Selectivity: unrelated signal transduction pathway Wnt/Bcatenin; type: cell-based

- IC50 (SMO receptor): 1 µM
SMILES: COc1cc(OC)c2c(=O)c(-c3ccc(OCC=C(C)C)c(OCC=C(C)C)c3)coc2c1 [Glabrescione B, 3-(3′,4′-bis(3-methylbut-2-enyloxy)phenyl)-5,7-dimethoxy-4H-chromen-4-one]
- effect on Hh pathway in luciferase assay ([1]; Gli1 gene reporter, pathway activated by SAG, cyclopamine as reference): inhibit the Hh pathway; also recorded: most potent lead
- IC50 ([1]; Mus musculus, SAG 200 nM, 48 h, normalized to Renilla, read-out: IC50 of luciferase reporter activity (Hh signaling)): 0.8 µM
- inhibition at 5 µM ([1]; Mus musculus, at 5 μM, highly active class): > 50%
- effect on HepG2 cells [2]: no effect
- inhibition at 30 µM (Wnt/Bcatenin): 0%
